In brackets after ≈: the same amount, converted by molar mass.
Conditions: for aqueous solubility: pH 6.8

Row | SMILES | MDR1-MDCK efflux ratio | intrinsic clearance, human liver microsomes | intrinsic clearance, rat liver microsomes | aqueous solubility | fraction unbound, human plasma | fraction unbound, rat plasma
1 | c1ccc(CC2=NCCN2)cc1 | 0.361 | ≤ 4.74 mL/min/kg | ≤ 10.7 mL/min/kg |  |  | 
2 | CN(C)[C@@H]1CN(C(=O)c2cc3ccc(F)cc3[nH]2)C[C@H]1O | 4.4 | ≤ 4.74 mL/min/kg | 121 mL/min/kg | 55.1 µg/mL (≈ 189 µM) |  | 
3 | O=C(NCC1CC1)c1ccc(-n2ccnc2)nc1 | 1.08 | ≤ 4.74 mL/min/kg | 23.2 mL/min/kg | 45.2 µg/mL (≈ 186 µM) |  | 
4 | COc1cccc(Oc2ccc(NC(=O)CN3CCOCC3)cn2)c1 | 1.26 | ≤ 4.74 mL/min/kg | 138 mL/min/kg |  |  | 
5 | O=C(C1CCCN(c2cnccn2)C1)N1CCc2ccccc2C1 (configuration not stated) |  | 273 mL/min/kg | 4500 mL/min/kg | 53.2 µg/mL (≈ 165 µM) |  | 
6 | O=c1c(CO)cc2cc3c(cc2n1Cc1ccccn1)CCC3 | 1.39 | 12.6 mL/min/kg | 1170 mL/min/kg |  |  | 
7 | Cc1nnnn1CCN(C)c1ccccc1 | 0.596 | 8.8 mL/min/kg | 221 mL/min/kg | 11.2 µg/mL (≈ 51.4 µM) |  | 
8 | COc1ncc(C(=O)NCc2cnn3cccnc23)cn1 | 2.54 | ≤ 4.74 mL/min/kg | ≤ 10.7 mL/min/kg |  |  | 
9 | COC(=O)c1c(C)[nH]c(C(=O)N(C)Cc2ccc(OC)c(F)c2)c1C | 1.5 | 55 mL/min/kg | 591 mL/min/kg | 47.3 µg/mL (≈ 136 µM) |  | 
10 | CC(C)(CNc1cnn(CCO)c1)c1ccccc1 |  | 8.4 mL/min/kg | 324 mL/min/kg |  |  | 
11 | [2H]C([2H])([2H])NC(=O)c1nnc(NC(=O)C2CC2)cc1Nc1cccc(-c2ncn(C)n2)c1OC | 114 | ≤ 4.74 mL/min/kg | 26.1 mL/min/kg | 17 µg/mL (≈ 39.9 µM) | 0.154 | 0.172
12 | CCCC(=O)Nc1ccc(-n2cccn2)nc1 | 0.559 | ≤ 4.74 mL/min/kg | 31.8 mL/min/kg | 45.2 µg/mL (≈ 196 µM) |  | 
13 | CC(C)(C)c1csc(CCNC(=O)N2CCSCC2)n1 | 1.14 | 127 mL/min/kg | 956 mL/min/kg | 69.1 µg/mL (≈ 220 µM) |  | 
14 | OCc1ccc(Cn2cc(-c3cc(F)ccc3-n3cccn3)nn2)cc1 | 2.09 | 15.5 mL/min/kg | 114 mL/min/kg | 34.5 µg/mL (≈ 98.9 µM) |  | 
15 | Cc1nc(C)c(CNc2cnn(-c3ccccc3)c2)s1 | 0.521 | 14.2 mL/min/kg | 124 mL/min/kg | 36.4 µg/mL (≈ 128 µM) |  | 
16 | CN(C)c1ccc(Cn2c(=O)[nH]c3ccccc3c2=O)cn1 | 4.71 | 9.13 mL/min/kg | 368 mL/min/kg | 2.6 µg/mL (≈ 8.77 µM) |  | 
17 | O=C(NCCNC(=O)c1cc(-c2ccccc2)nc2ccccc12)c1ccco1 | 10 | 58.6 mL/min/kg | 461 mL/min/kg | 37.6 µg/mL (≈ 97.7 µM) |  | 
18 | Cc1cc(C)c2ccc(C(=O)N3CCN(c4nc[nH]n4)CC3)cc2n1 | 70.8 | ≤ 4.74 mL/min/kg | 16.8 mL/min/kg |  |  | 
19 | O=C(c1cc(F)ccc1O)N1CCN(C2CCOCC2)CC1 |  | ≤ 4.74 mL/min/kg | 201 mL/min/kg |  |  | 
20 | CS(=O)(=O)CCc1nc(C2(c3ccccc3)CC2)nn1-c1ccccc1 | 5.9 | 5.64 mL/min/kg | 131 mL/min/kg | 30.6 µg/mL (≈ 83.3 µM) |  | 
21 | O=C(NCCc1ccc2c(c1)OCO2)Nc1ccncc1 | 3.6 | 8.32 mL/min/kg | 27.3 mL/min/kg | 46.5 µg/mL (≈ 163 µM) |  | 
22 | O=C(Nc1ccncc1)[C@H]1CCCN(S(=O)(=O)c2ccc(Cl)cc2)C1 | 20 | 22.2 mL/min/kg | 721 mL/min/kg |  |  | 
23 | Cc1nn(-c2ccc(C(=O)O)cc2C#Cc2ccccc2)c(C)c1C | 3.82 | ≤ 4.74 mL/min/kg | 595 mL/min/kg | 46.4 µg/mL (≈ 140 µM) |  | 
24 | O=C(NCC(F)(F)F)c1ccncc1 |  |  |  | 30.7 µg/mL (≈ 150 µM) |  | 
25 | Cc1cc(-c2cnn(CCNC(=O)c3sc(C)nc3C)c2C2CC2)on1 | 5.26 | 23.8 mL/min/kg | 123 mL/min/kg | 67.1 µg/mL (≈ 181 µM) |  | 
26 | CCCn1ccnc1CNc1nc2c(s1)c(C)nn2C | 8.95 | 6.75 mL/min/kg | 129 mL/min/kg | 31 µg/mL (≈ 107 µM) |  | 
27 | CCNC(=O)N1CCC2(CCc3ccccc3O2)CC1 | 0.737 | 6.22 mL/min/kg | 884 mL/min/kg | 66.7 µg/mL (≈ 243 µM) |  | 
28 | CCOc1ccc(C(=O)Nc2cc(C(=O)OC)ccc2N2CCN(C(C)=O)CC2)cc1 | 5.81 | 21.8 mL/min/kg | 444 mL/min/kg | 2.41 µg/mL (≈ 5.66 µM) |  | 

Further lines, results first:

Row | MDR1-MDCK efflux ratio | intrinsic clearance, human liver microsomes | intrinsic clearance, rat liver microsomes | aqueous solubility | fraction unbound, human plasma | fraction unbound, rat plasma | SMILES
29 | 1.46 | 997 mL/min/kg | 2710 mL/min/kg |  | 0.00787 | 0.0139 | CN(C)C(=O)C1(Cc2ccccc2-c2cccc(F)c2)CCN(C(=O)C2CC=CCC2)CC1 (configuration not stated)
30 | 0.717 | 175 mL/min/kg | 1980 mL/min/kg | 2.45 µg/mL (≈ 6.72 µM) |  |  | COc1ccc(-c2cccc(C3CCCN(C(=O)C4CCCC4)C3)n2)cc1 (configuration not stated)
31 | 4.28 | 7.03 mL/min/kg | 521 mL/min/kg | 18.4 µg/mL (≈ 56.9 µM) |  |  | CCOC(=O)c1ccc(NC(=O)Cn2cnc3ccccc32)cc1
32 | 9.09 | 7.73 mL/min/kg |  |  | 0.586 |  | O=C(Nc1ccc(CN2CCCCC2)cc1)c1ccnc2[nH]cnc12
33 |  | 123 mL/min/kg | 2600 mL/min/kg |  |  |  | CN1C(=O)c2ccc(C(=O)N(CC3CCCCC3)C3CC3)cc2C1=O
34 |  |  |  | 38.5 µg/mL (≈ 147 µM) |  |  | N#CCN(CN1C(=O)CC2(CCCC2)C1=O)C1CC1
35 | 0.609 | 164 mL/min/kg | 185 mL/min/kg |  |  |  | N#Cc1ccnc(Nc2ccc(F)cc2)c1
36 | 17.7 | ≤ 4.74 mL/min/kg | 18.4 mL/min/kg | 45 µg/mL (≈ 192 µM) |  |  | Cc1nc(N(C)C)cc(C2(C)CCNCC2)n1
37 | 0.53 | ≤ 4.74 mL/min/kg | 26.2 mL/min/kg | 25.6 µg/mL (≈ 125 µM) |  |  | Nc1ccc(Oc2ccccc2F)nc1
38 | 35.5 |  |  |  | 0.0253 | 0.0205 | N#Cc1ccc(COc2cccc(C3CCN(Cc4nc5ccc(C(=O)O)cc5n4C[C@@H]4CCO4)CC3)n2)c(F)c1
39 | 0.684 | ≤ 4.74 mL/min/kg | 21.4 mL/min/kg | 22.6 µg/mL (≈ 85 µM) |  |  | Cc1nc(Cl)cc(Nc2cnn(C(C)(C)C)c2)n1
40 |  | 125 mL/min/kg | 1650 mL/min/kg | 49.8 µg/mL (≈ 139 µM) |  |  | O=C(C1CCCN(c2ccc(Cl)nn2)C1)N1CCc2ccccc2C1 (configuration not stated)
41 | 1.2 | 62.2 mL/min/kg | 468 mL/min/kg | 60.3 µg/mL (≈ 179 µM) |  |  | O=C(COc1ncnc2ccccc12)NC12CC3CC(CC(C3)C1)C2
42 | 31.7 | ≤ 4.74 mL/min/kg | ≤ 10.7 mL/min/kg |  |  |  | O=C(NCC1(N2CCCCC2)CCCC1)c1cnn[nH]1
43 |  | 51.8 mL/min/kg | 485 mL/min/kg | 38 µg/mL (≈ 121 µM) |  |  | COCc1ccc(-c2nc3c([nH]2)c(C)nn3C2CCCCC2)o1
44 |  |  |  | 8.5 µg/mL (≈ 27.5 µM) |  |  | CN(Cc1sccc1Br)c1nccnc1C#N
45 | 16.9 | 158 mL/min/kg | 2090 mL/min/kg | 26.9 µg/mL (≈ 75.9 µM) |  |  | C=C(C)COc1cccc(C(=O)NCc2nncn2C2CCCCC2)c1
46 | 0.458 | 26.9 mL/min/kg | 219 mL/min/kg | 16.5 µg/mL (≈ 60.7 µM) |  |  | Clc1ccc(Cc2nc(-c3cccnc3)no2)cc1
47 |  |  |  |  |  | 1 | COCCc1ccc(OCC(O)CNC(C)C)cc1 (configuration not stated)
48 | 0.855 | ≤ 4.74 mL/min/kg | 12.4 mL/min/kg | 28.4 µg/mL (≈ 130 µM) |  |  | C#CCNC(=O)c1cc(C(C)C)nn1CC
49 |  | ≤ 4.74 mL/min/kg | 245 mL/min/kg |  |  |  | Cc1cnc(CNC2(c3nccs3)CCCC2)cn1
50 | 1.76 | 45.7 mL/min/kg | 621 mL/min/kg |  |  |  | Cc1ccc(C#N)c(NCc2ccccc2-n2ccnc2)n1
51 |  | 55.3 mL/min/kg | 598 mL/min/kg |  |  |  | CC(C)C[C@H](C(=O)N[C@H](C(=O)OC1CCCC1)c1ccccc1)[C@@H](O)C(=O)NO
52 | 0.786 | ≤ 4.74 mL/min/kg | 111 mL/min/kg |  |  |  | CC(C)c1nnc(NCc2cc(F)cc(F)c2)o1
53 | 24.6 | 9.63 mL/min/kg | 49.2 mL/min/kg |  |  |  | N#Cc1ccc2ncnc(N[C@H]3CC[C@H](N4CCOCC4)CC3)c2c1
54 |  | 39.1 mL/min/kg | 304 mL/min/kg |  |  |  | Cc1nccc(-c2cccc(NCC(=O)Nc3ccc(F)cc3)c2)n1
55 | 6.69 | 14.4 mL/min/kg | 75.7 mL/min/kg |  |  |  | Cc1cc(C)c(NC(=O)CN(C)c2ccc(C#N)nc2)c(C)c1
56 | 1.19 | 11.2 mL/min/kg | ≤ 10.7 mL/min/kg | 58.8 µg/mL (≈ 163 µM) |  |  | N#Cc1c(O)nc2scc(-c3ccc(-c4ccccc4O)cc3)c2c1O
57 | 20.2 | 258 mL/min/kg | 248 mL/min/kg |  |  |  | CCN1CCN(S(=O)(=O)c2c[nH]c(C(C)C)n2)c2ccccc21
58 | 0.691 | ≤ 4.74 mL/min/kg | ≤ 10.7 mL/min/kg |  |  |  | O=C(NN1CCOCC1)c1ccc(Cl)c(Cl)c1

From the Biogen ADME set (Fang et al. 2023)
